Assay results: US7482362B2, “Substituted-4-quinolones” (priority 2000, dated 2009)

Columns and labels:
[1] = test system: IL-2; test: IL-2 release from ConA-stimulated human PBMC, sandwich ELISA; type: cell-based; settings: ConA 1 μg/ml, culture supernatant, FIG. 4B
Protocol: Human peripheral blood mononuclear cells (PBMC) were isolated from heparinised whole blood by buoyant density centrifugation over Histopague 1077 (Sigma, Poole, UK) 600 g for 20 minutes. PBMC harvested from the ‘buffy’ layers were washed and then aliquoted into 96-well plates at 100,000 per well. PBMC were exposed to bacterial quorum sensing molecules (PQS or OdDHL) at concentrations ranging from 0.78125 to 100 μM and then stimulated with 1 μg/ml of Concanavalin A (ConA). After an overnight culture 50 μl of the culture supernatant was removed for the detection of IL-2 released by ‘sandwich’ ELISA. […] Following an 18-hour pulse the human PBMC were harvested onto fibreglass filters which were then counted in the presence of MicroScint-O with the Packard TopCount scintillation counter.
Human leucocytes when stimulated with ConA released the cytokine IL-2. The levels of cytokine produced in the culture supernatants after 24 h were determined in a ‘sandwich’ ELISA. […] Following four washes, the bound biotinylated antibody was detected with 50 μl of a 1:1,000 dilution of Streptavidin-peroxidase (BD Pharmingen, UK). […] The enzyme reaction was stopped with 50 μl of 2.5 M H2SO4 after a development of 10 minutes at room temperature and the development was read at 450 nm with a spectrophotometric 96-well plate reader.

[2] = test system: TNF-α; test: In vitro LPS stimulation of human PBMC for the release of TNF-α, sandwich ELISA; type: cell-based; settings: FIG. 4C
Protocol: Human PBMC, at 100,000 cell per well, were stimulated with 1×10^−5 μg/ml LPS E. coli strain 055:B5. Following culture for 24 hours the cell culture supernatants were collected and tested for TNF-α levels by ‘sandwich’ ELISA similarly described above for the IL-2 detection assay.

[3] = test system: Human peripheral blood mononuclear cells (PBMC); test: In vitro proliferation assay of ConA-stimulated human PBMC (3H-thymidine); type: cell-based; settings: ConA 1 μg/ml, 0.78125 to 100 μM; FIG. 4A
Protocol: Human peripheral blood mononuclear cells (PBMC) were isolated from heparinised whole blood by buoyant density centrifugation over Histopague 1077 (Sigma, Poole, UK) 600 g for 20 minutes. PBMC harvested from the ‘buffy’ layers were washed and then aliquoted into 96-well plates at 100,000 per well. PBMC were exposed to bacterial quorum sensing molecules (PQS or OdDHL) at concentrations ranging from 0.78125 to 100 μM and then stimulated with 1 μg/ml of Concanavalin A (ConA). After an overnight culture 50 μl of the culture supernatant was removed for the detection of IL-2 released by ‘sandwich’ ELISA. The cells were returned to culture for another 24 hours before 0.25 μCi per well of ^3H-thymidine was added. Following an 18-hour pulse the human PBMC were harvested onto fibreglass filters which were then counted in the presence of MicroScint-O with the Packard TopCount scintillation counter.

[4] = test system: Mono Mac 6 cells; test: Mono Mac 6 cellular viability by MTS conversion to formazan; type: cell-based, human; settings: Mono Mac 6, 100,000 cells per well, overnight exposure, 3.90625 to 500 μM; FIG. 2, 3
Protocol: The human monocytic cell line, Mono Mac 6, was treated with concentrations of bacterial quorum sensing molecules 2-heptyl-3-hydroxy-4(1H)quinolone (PQS), N-(3-oxododecanoyl)-L-homoserine lactone (OdDHL) and N-(3-oxohexanoyl)-L-homoserine lactone. Cells at 100,000 per well were exposed to quorum sensing molecules ranging from 3.90625 to 500 μM after which the cells were stimulated with 10 ng/ml E. coli LPS and 5 ng/ml phorbol-myristrate acetate to induce the overnight release of TNF-αinto the culture media. A tetrazolium compound (3-(4,5-dimethylthazol-2-yl)-5-(3-carboxymethoxyphenyl)-2-(4-sulfophenyl)-2H-tetrazolium, inner salt MTS was added to the cells to determine cellular viability after treatment with the quorum sensing molecules. MTS is bioreduced by cells into a formazan product that is soluble in tissue culture medium. The production of formazan was determined by measuring the absorbance of the compound at 450 nm. The results are shown in FIG. 2. A titration of cell numbers was included to correlate to the number of viability cells in the treated wells as set out in the table below.

[5] = test system: murine splenocytes; test: ConA mitogen-stimulated proliferation of murine splenocytes ([3H]-thymidine incorporation); type: cell-based, mouse (BALB/c); settings: ConA 1 μg/ml, 100,000 spleen cells, compound about 10 to 0.2 μM; FIG. 1
Protocol: 1. ConA Mitogen-Stimulated Proliferation of Murine Splenocytes
The concanavalin A (ConA) cell proliferation assay was used to assess the effect of the title compound on T-cell activation and proliferation. Proliferation was assessed by the incorporation of [^3H]-thymidine into DNA. Eight-week-old female BALB/c mice were obtained from Harlan (Bicester, Oxon, UK) and given food and water ad libitum. Splenocyte suspensions were prepared by removing the spleens and placing them into RPMI 1640 medium. The spleens were forced through 70 μm pore size wire gauzes using the plunger from a 5 ml syringe to produce a single cell suspension. The cells were pelleted by centrifugation, and erythrocytes were lysed with 0.017M Tris, 0.144M ammonium chloride buffer, pH 7.2. Leucocytes were washed twice with RPMI 1640 medium with 2% (vol/vol) foetal calf serum (FCS) and resuspended in complete cell culture medium (CTCM) consisting of RPMI 1640 medium with 5% FCS, 2 mM L-glutamine, and 5×10−5 M 2-mercaptoethanol. The title compound was tested at doubling down dilutions ranging from about 10 to 0.2 μM in a final volume of 200 μl of CTCM, containing ConA (Sigma, Poole, UK) at 1 μg/ml and 100,000 spleen cells. […] After the addition of 25 μl of MicroScint-O (Packard) to each well the filters were counted with the Packard TopCount scintillation counter. […]

SMILES	IL-2 secretion [1]	TNF-α production ([2]; LPS E. coli 055:B5, 24 hours)	human PBMC cell proliferation [3]	cell viability, as adjudged by MTS conversion [4]	TNF-α production at high dose ([2]; LPS-stimulated, high dose)	TNF-α production at low dose ([2]; LPS-stimulated, low dose)	splenocyte proliferation (counts per minute, [3H]-thymidine incorporation) [5]
CCCCCCCCCC(=O)CC(=O)N[C@H]1CCOC1=O [OdDHL, N-(3-oxododecanoyl)-L-homoserine lactone]	inhibits	inhibits	inhibits	–	–	–	–
CCCCCCCc1[nH]c2ccccc2c(=O)c1O [PQS, 2-heptyl-3-hydroxy-4(1H)quinolone]	–	–	–	no effect	may enhance	no effect	inhibits
